Reference: patent publication US9650340B2, “5-fluoro-N-(pyridin-2-yl)pyridin-2-amine derivatives containing a sulfoximine group” (BAYER PHARMA AKTIENGESELLSCHAFT, priority 2012, dated 2017)
Where two headings read alike, the source gives them in different places.

Tests used:
CDK9/CycT1 = target: T1, CDK9/CycT1 (Homo sapiens, UniProt P50750); test: CDK9/CycT1 kinase assay (TR-FRET, 10 μM ATP); type: biochemical; conditions: Method 1a
T1 construct: Recombinant full-length His-tagged human CDK9 and CycT1; His; purchased Invitrogen PV4131; host or cells: insect cells
Source text: 1a. CDK9/CyeT1 Kinase Assay:
CDK9/CycT1-inhibitory activity of compounds of the present invention was quantified employing the CDK9/CycT1 TR-FRET assay as described in the following paragraphs:
Recombinant full-length His-tagged human CDK9 and CycT1, expressed in insect cells and purified by Ni-NTA affinity chromatography, were purchased from Invitrogen (Cat. No PV4131). As substrate for the kinase reaction biotinylated peptide biotin-Ttds-[…] (C-terminus in amid form) was used which can be purchased e.g. form the company JERINI Peptide Technologies (Berlin, Germany). For the assay 50 nl of a 100 fold concentrated solution of the test compound in DMSO was pipetted into a black low volume 384 well microtiter plate (Greiner Bio-One, Frickenhausen, Germany), 2 μl of a solution of CDK9/CycT1 in aqueous assay buffer [50 mM Tris/HCl pH 8.0, 10 mM MgCl2, 1.0 mM dithiothreitol, 0.1 mM sodium ortho-vanadate, 0.01% (v/v) Nonidet-P40 (Sigma)] were added and the mixture was incubated for 15 min at 22° C. to allow pre-binding of the test compounds to the enzyme before the start of the kinase reaction.
The resulting mixture was incubated 1 h at 22° C. to allow the formation of complex between the phosphorylated biotinylated peptide and the detection reagents. Subsequently the amount of phosphorylated substrate was evaluated by measurement of the resonance energy transfer from the Eu-chelate to the streptavidine-XL.

[1] = tested on: MOLM-13 human acute myeloid leukemia cells; test: Proliferation assay, MOLM-13 (Cell Titre-Glo); type: cell-based; conditions: MOLM-13, 72-hour exposure, read-out: Inhibition of MOLM-13 cell proliferation IC50
Description: (§1) Cultivated tumour cells (HeLa, human cervical tumour cells, ATCC CCL-2; NCI-H460, human non-small cell lung carcinoma cells, ATCC HTB-177; A2780, human ovarian carcinoma cells, ECACC #93112519; DU 145, hormone-independent human prostate carcinoma cells, ATCC HTB-81; HeLa-MaTu-ADR, multidrug-resistant human cervical carcinoma cells, EPO-GmbH Berlin; Caco-2, human colorectal carcinoma cells, ATCC HTB-37; B16F10, mouse melanoma cells, ATCC CRL-6475) were plated at a density of 5,000 cells/well (DU145, HeLa-MaTu-ADR), 3,000 cells/well (NCI-H460, HeLa), 2,500 cells/well (A2780), 1,500 cells/well (Caco-2), or 1,000 cells/well (B16F10) in a 96-well multititer plate in 200 μL of their respective growth medium supplemented 10% fetal calf serum. After 24 hours, the cells of one plate (zero-point plate) were stained with crystal violet (see below), while the medium of the other plates was replaced by fresh culture medium (200 μl), to which the test substances were added in various concentrations (0 μM, as well as in the range of 0.001-10 μM; the final concentration of the solvent dimethyl sulfoxide was 0.5%). The cells were incubated for 4 days in the presence of test substances. Cell proliferation was determined by staining the cells with crystal violet: the cells were fixed by adding 20 μl/measuring point of an 11% glutaric aldehyde solution for 15 minutes at room temperature. After three washing cycles of the fixed cells with water, the plates were dried at room temperature. The cells were stained by adding 100 μl/measuring point of a 0.1% crystal violet solution (pH 3.0). After three washing cycles of the stained cells with water, the plates were dried at room temperature. The dye was dissolved by adding 100 μl/measuring point of a 10% acetic acid solution. The extinction was determined by photometry at a wavelength of 595 nm. The change of cell number, in percent, was calculated by normalization of the measured values to the extinction values of the zero-point plate (=0%) and the extinction of the untreated (0 μm) cells (=100%). The IC50 values (inhibitory concentration at 50% of maximal effect) were determined by means of a 4 parameter fit. Non-adherent MOLM-13 human acute myeloid leukemia cells (DSMZ ACC 554) were seeded at a density of 5,000 cells/well in a 96-well multititer plate in 100 μL of growth medium supplemented 10% fetal calf serum. After 24 hours, cell viability of one plate (zero-point plate) was determined with the Cell Titre-Glo Luminescent Cell Viability Assay (Promega), while 50 μL of test compound containing medium was added to the wells of the other plates (final concentrations in the range of 0.001-10 μM and DMSO controls; the final concentration of the solvent dimethyl sulfoxide was 0.5%). Cell viability was assessed after 72-hour exposure with the Cell Titre-Glo Luminescent Cell Viability Assay (Promega).

[2] = tested on: A2780, human ovarian carcinoma cells; test: Proliferation assay, A2780 (crystal violet); type: cell-based; conditions: A2780, 4 days, read-out: Inhibition of A2780 cell proliferation IC50
Description: as §1

T1 sequence (P50750 whole entry): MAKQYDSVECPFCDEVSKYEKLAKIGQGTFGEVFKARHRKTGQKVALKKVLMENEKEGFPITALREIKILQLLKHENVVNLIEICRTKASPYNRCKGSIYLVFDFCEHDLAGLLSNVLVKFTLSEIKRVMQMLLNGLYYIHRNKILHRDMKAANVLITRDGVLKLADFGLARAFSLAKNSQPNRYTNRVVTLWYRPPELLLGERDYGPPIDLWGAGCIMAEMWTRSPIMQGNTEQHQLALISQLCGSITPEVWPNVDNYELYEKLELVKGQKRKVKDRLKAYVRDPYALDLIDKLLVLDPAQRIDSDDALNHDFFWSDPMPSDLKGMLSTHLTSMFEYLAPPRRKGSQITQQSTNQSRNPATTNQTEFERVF
T1 sequence (O60563 whole entry partner): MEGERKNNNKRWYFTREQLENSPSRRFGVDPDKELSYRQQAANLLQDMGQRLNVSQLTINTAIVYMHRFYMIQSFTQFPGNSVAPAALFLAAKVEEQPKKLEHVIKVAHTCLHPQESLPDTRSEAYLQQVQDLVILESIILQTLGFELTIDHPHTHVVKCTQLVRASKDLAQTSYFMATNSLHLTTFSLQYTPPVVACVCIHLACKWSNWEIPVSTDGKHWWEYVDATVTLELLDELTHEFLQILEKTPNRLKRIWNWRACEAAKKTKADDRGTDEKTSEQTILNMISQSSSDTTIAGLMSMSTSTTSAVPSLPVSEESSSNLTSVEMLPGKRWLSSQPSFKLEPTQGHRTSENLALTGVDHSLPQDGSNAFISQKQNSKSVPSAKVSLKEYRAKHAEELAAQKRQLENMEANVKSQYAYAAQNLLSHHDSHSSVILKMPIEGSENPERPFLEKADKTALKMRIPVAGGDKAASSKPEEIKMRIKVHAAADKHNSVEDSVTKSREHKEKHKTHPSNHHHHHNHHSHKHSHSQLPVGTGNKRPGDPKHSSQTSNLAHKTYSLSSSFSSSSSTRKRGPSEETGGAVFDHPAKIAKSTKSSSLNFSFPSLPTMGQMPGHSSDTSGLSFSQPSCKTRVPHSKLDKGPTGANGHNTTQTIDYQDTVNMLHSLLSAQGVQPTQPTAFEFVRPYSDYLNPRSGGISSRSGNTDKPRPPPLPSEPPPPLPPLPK

For `COc1cc(F)ccc1-c1cc(Nc2cc(CS(C)(=N)=O)c(Br)c(C)n2)ncc1F` (racemic) [Example 5, (rac)-5-Bromo-N-[5-fluoro-4-(4-fluoro-2-methoxyphenyl)pyridin-2-yl]-6-methyl-4-[(S-methylsulfonimidoyl)methyl]pyridin-2-amine], the IC50 (CDK9/CycT1) was 5 nM.

For `COc1cc(F)ccc1-c1cc(Nc2cc(CS(C)(=N)=O)cc(C)n2)ncc1F` (single isomer, unassigned; (-)) [Example 33, (−)-5-Fluoro-4-(4-fluoro-2-methoxyphenyl)-N-{6-methyl-4-[(S-methylsulfonimidoyl)methyl]pyridin-2-yl}pyridin-2-amine], the IC50 [1] was 23 nM.

With `CCOc1cc(F)ccc1-c1cc(Nc2cc(CS(C)(=O)=NC(=O)C(F)(F)F)cc(F)n2)ncc1F` (racemic) [Example 27, (rac)-N-{[(2-{[4-(2-Ethoxy-4-fluoro-phenyl)-5-fluoropyridin-2-yl]amino}-6-fluoropyridin-4-yl)methyl]-(methyl)oxido-λ^6-sulfanylidene}-2,2,2-trifluoroacetamide] the IC50 (CDK9/CycT1) was 9 nM.

`COc1cc(F)ccc1-c1cc(Nc2cc(CS(C)(=O)=NC(=O)C(F)(F)F)cc(F)n2)ncc1F` (racemic) [Example 18, (rac)-2,2,2-Trifluoro-N-{[(2-fluoro-6-{[5-fluoro-4-(4-fluoro-2-methoxyphenyl)pyridin-2-yl]amino}pyridin-4-yl)methyl](methyl)oxido-λ^6-sulfanylidene}acetamide] was tested, and the IC50 (CDK9/CycT1) was 3 nM.

`CCOc1cc(F)ccc1-c1cc(Nc2cc(CS(C)(=N)=O)cc(F)n2)ncc1F` (single isomer, unassigned; (+)) [Example 28, (+)-4-(2-Ethoxy-4-fluorophenyl)-5-fluoro-N-{6-fluoro-4-[(S-methylsulfonimidoyl)methyl]pyridin-2-yl}pyridin-2-amine] showed an IC50 (CDK9/CycT1) of 5 nM.

With `COc1cc(F)ccc1-c1cc(Nc2cc(CS(C)(=O)=NC(=O)C(F)(F)F)cc(C(F)(F)F)n2)ncc1F` (single isomer, unassigned; (+)) [Example 24, (+)-2,2,2-Trifluoro-N-[{[2-{[5-fluoro-4-(4-fluoro-2-methoxyphenyl)pyridin-2-yl]amino}-6-(trifluoromethyl)-pyridin-4-yl]methyl}(methyl)oxido-λ^6-sulfanylidene]acetamide] the IC50 (CDK9/CycT1) was 18 nM.

In the case of `COc1cc(F)ccc1-c1cc(Nc2cc(CS(C)(=N)=O)cc(F)n2)ncc1F` (single isomer, unassigned; (+)) [Example 19, (+)-5-Fluoro-4-(4-fluoro-2-methoxyphenyl)-N-{6-fluoro-4-[(S-methylsulfonimidoyl)methyl]pyridin-2-yl}pyridin-2-amine], the IC50 (CDK9/CycT1) is reported as 5 nM.

`CCOc1cc(F)ccc1-c1cc(Nc2cc(CS(C)(=N)=O)cc(F)n2)ncc1F` (racemic) [Example 26, (rac)-4-(2-Ethoxy-4-fluorophenyl)-5-fluoro-N-{6-fluoro-4-[(S-methylsulfonimidoyl)methyl]pyridin-2-yl}pyridin-2-amine] gave an IC50 (CDK9/CycT1) of 3 nM, an IC50 ([2]; Homo sapiens, A2780, 96 h) of 36 nM and an IC50 ([1]; Homo sapiens, MOLM-13, 72 h) of 44 nM.

`COc1cc(F)ccc1-c1cc(Nc2cc(CS(C)(=N)=O)cc(C)n2)ncc1F` (single isomer, unassigned; (+)) [Example 32, (+)-5-Fluoro-4-(4-fluoro-2-methoxyphenyl)-N-{6-methyl-4-[(S-methylsulfonimidoyl)methyl]pyridin-2-yl}pyridin-2-amine] showed an IC50 ([2]; Homo sapiens, A2780, 96 h) of 10 nM and an IC50 ([1]; Homo sapiens, MOLM-13, 72 h) of 17 nM.

`CCOC(=O)N=S(C)(=O)Cc1cc(Nc2cc(-c3ccc(F)cc3OC)c(F)cn2)nc(OC)c1` (racemic) [Example 15, (rac)-ethyl{[(2-{[5-fluoro-4-(4-fluoro-2-methoxyphenyl)pyridin-2-yl]amino}-6-methoxypyridin-4-yl)methyl](methyl)oxido-λ^6-sulfanylidene}carbamate] showed an IC50 (CDK9/CycT1) of 2 nM.

With `COc1cc(F)ccc1-c1cc(Nc2cc(CS(C)(=N)=O)cc(F)n2)ncc1F` (single isomer, unassigned; (-)) [Example 20, (−)-5-Fluoro-4-(4-fluoro-2-methoxyphenyl)-N-{6-fluoro-4-[(S-methylsulfonimidoyl)methyl]pyridin-2-yl}pyridin-2-amine] the IC50 (CDK9/CycT1) was 2 nM.

Molecule `COc1cc(F)ccc1-c1cc(Nc2cc(CS(C)(=N)=O)cc(C(F)F)n2)ncc1F` (racemic) [Example 31, (rac)-N-{6-(Difluoromethyl)-4-[(S-methylsulfonimidoyl)methyl]pyridin-2-yl}-5-fluoro-4-(4-fluoro-2-methoxyphenyl)pyridin-2-amine] has an IC50 (CDK9/CycT1) of 3 nM.

Work on `CCS(=N)(=O)Cc1ccnc(Nc2cc(-c3ccc(F)cc3OC)c(F)cn2)c1` (racemic) [Example 30, (rac)-N-{4-[(S-Ethylsulfonimidoyl)-methyl]pyridin-2-yl}-5-fluoro-4-(4-fluoro-2-methoxyphenyl)pyridin-2-amine] yielded an IC50 (CDK9/CycT1) of 3 nM.

`COc1cc(F)ccc1-c1cc(Nc2cc(CS(C)(=N)=O)cc(C(F)(F)F)n2)ncc1F` (racemic) [Example 21, (rac)-5-Fluoro-4-(4-fluoro-2-methoxyphenyl)-N-{4-[(S-methylsulfonimidoyl)methyl]-6-(trifluoromethyl)pyridin-2-yl}pyridin-2-amine] showed an IC50 (CDK9/CycT1) of 2 nM, an IC50 ([2]; Homo sapiens, A2780, 96 h) of 17 nM and an IC50 ([1]; Homo sapiens, MOLM-13, 72 h) of 17 nM.

Work on `COc1cc(CS(C)(=N)=O)cc(Nc2cc(-c3ccc(F)cc3OC)c(F)cn2)n1` (racemic) [Example 6, (rac)-5-Fluoro-4-(4-fluoro-2-methoxyphenyl)-N-{6-methoxy-4-[(S-methylsulfonimidoyl)methyl]pyridin-2-yl}pyridin-2-amine] yielded an IC50 (CDK9/CycT1) of 2 nM, an IC50 ([2]; Homo sapiens, A2780, 96 h) of 11 nM and an IC50 ([1]; Homo sapiens, MOLM-13, 72 h) of 11 nM.

Work on `CCOc1cc(F)ccc1-c1cc(Nc2cc(CS(C)(=N)=O)cc(F)n2)ncc1F` (single isomer, unassigned; (-)) [Example 29, (−)-4-(2-Ethoxy-4-fluorophenyl)-5-fluoro-N-{6-fluoro-4-[(S-methylsulfonimidoyl)methyl]pyridin-2-yl}pyridin-2-amine] yielded an IC50 (CDK9/CycT1) of 3 nM.

With `COc1cc(F)ccc1-c1cc(Nc2cc(CS(C)(=N)=O)ccn2)ncc1F` (single isomer, unassigned; (+)) [Example 2, (+)-5-Fluoro-4-(4-fluoro-2-methoxyphenyl)-N-{4-[(S-methylsulfonimidoyl)methyl]pyridin-2-yl}pyridin-2-amine] the IC50 [2] was 110 nM and the IC50 ([1]; Homo sapiens, MOLM-13, 72 h) was 29 nM.

Work on `COc1cc(F)ccc1-c1cc(Nc2cc(CS(C)(=O)=NC(=O)C(F)(F)F)cc(C(F)(F)F)n2)ncc1F` (single isomer, unassigned; (-)) [Example 25, (−)-2,2,2-Trifluoro-N-[{[2-{[5-fluoro-4-(4-fluoro-2-methoxyphenyl)pyridin-2-yl]amino}-6-(trifluoromethyl)-pyridin-4-yl]methyl}(methyl)oxido-λ^6-sulfanylidene]acetamide] yielded an IC50 (CDK9/CycT1) of 15 nM.
